Reference: the supplement of paper PMC6045584
± gives the standard deviation of the averaged measurements.

Columns and labels:
[1] = compound: Cc1nc(Nc2n[nH]c3c2CN(C(=O)N[C@H](CN(C)C)c2ccccc2)C3(C)C)c2sccc2n1; assay: surviving fraction relative to DMSO-only wells; higher = less growth inhibition; conditions: exposure time: 5 days
Method in brief: (§1)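 Tumour cell lines were seeded in log phase at 250–500 cells per well into 384-well plates. Starting 24 hours later, inhibitors were present continuously for five days at 0.5, 1, 5, 10, 50, 100, 500 and 1000 nM. Surviving fraction, from CellTiter-Glo luminescence, is normalised to the median of DMSO-only wells. Three screens per line were required, with replicate Pearson r >0.7 and median Z' >0.3 for a line to be kept.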

EVEROLIMUS = compound: CO[C@H]1C[C@@H]2CC[C@@H](C)[C@@](O)(O2)C(=O)C(=O)N2CCCC[C@H]2C(=O)O[C@H]([C@H](C)C[C@@H]2CC[C@@H](OCCO)[C@H](OC)C2)CC(=O)[C@H](C)/C=C(\C)[C@@H](O)[C@@H](OC)C(=O)[C@H](C)C[C@H](C)/C=C/C=C/C=C/1C [EVEROLIMUS]; assay: as above; conditions: exposure time: 5 days
Method in brief: as §1

For SYO1 SYNOVIAL, which surviving fraction ([1]; 0.5 nM) is on record?
Its surviving fraction is 0.65 ± 0.017.

What about the surviving fraction ([1]; 1 nM) of the same test system?
The surviving fraction was 0.486 ± 0.01.

And the surviving fraction ([1]; 5 nM)?
Its surviving fraction is 0.269 ± 0.023.

What about the surviving fraction ([1]; 10 nM) of the same test system?
Its surviving fraction is 0.214 ± 0.0035.

And the surviving fraction ([1]; 50 nM)?
The surviving fraction was 0.166 ± 0.016.

And the surviving fraction ([1]; 100 nM)?
Its surviving fraction is 0.129 ± 0.013.

And the surviving fraction ([1]; 500 nM)?
The surviving fraction was 0.0548 ± 0.0036.

And the surviving fraction ([1]; 1000 nM)?
The surviving fraction was 0.0347 ± 0.0023.

What about the surviving fraction (EVEROLIMUS; 0.5 nM) of the same test system?
The surviving fraction was 0.8921 ± 0.0089.

And the surviving fraction (EVEROLIMUS; 1 nM)?
The surviving fraction was 0.834 ± 0.011.

And the surviving fraction (EVEROLIMUS; 5 nM)?
Its surviving fraction is 0.661 ± 0.016.

And the surviving fraction (EVEROLIMUS; 10 nM)?
Its surviving fraction is 0.602 ± 0.036.

And the surviving fraction (EVEROLIMUS; 50 nM)?
The surviving fraction was 0.508 ± 0.011.

What about the surviving fraction (EVEROLIMUS; 100 nM) of the same test system?
Its surviving fraction is 0.508 ± 0.0081.

And the surviving fraction (EVEROLIMUS; 500 nM)?
Its surviving fraction is 0.484 ± 0.036.

What about the surviving fraction (EVEROLIMUS; 1000 nM) of the same test system?
Its surviving fraction is 0.45 ± 0.022.

What does the source list for BT20 BREAST?
surviving fraction ([1]; 0.5 nM): 1.21 ± 0.12; surviving fraction ([1]; 1 nM): 1.11 ± 0.056; surviving fraction ([1]; 5 nM): 1.34 ± 0.025; surviving fraction ([1]; 10 nM): 1.28 ± 0.013; surviving fraction ([1]; 50 nM): 0.841 ± 0.11; surviving fraction ([1]; 100 nM): 0.631 ± 0.12; surviving fraction ([1]; 500 nM): 0.614 ± 0.076; surviving fraction ([1]; 1000 nM): 0.542 ± 0.062; surviving fraction (EVEROLIMUS; 0.5 nM): 0.595 ± 0.042; surviving fraction (EVEROLIMUS; 1 nM): 0.46 ± 0.037; surviving fraction (EVEROLIMUS; 5 nM): 0.394 ± 0.041; surviving fraction (EVEROLIMUS; 10 nM): 0.378 ± 0.042; surviving fraction (EVEROLIMUS; 50 nM): 0.353 ± 0.015; surviving fraction (EVEROLIMUS; 100 nM): 0.369 ± 0.02; surviving fraction (EVEROLIMUS; 500 nM): 0.34 ± 0.018; surviving fraction (EVEROLIMUS; 1000 nM): 0.374 ± 0.018

How did the surviving fraction ([1]; 0.5 nM) turn out when SG27 HEADNECK was run?
Its surviving fraction is 0.936 ± 0.024.

And the surviving fraction ([1]; 1 nM)?
The surviving fraction was 0.931 ± 0.029.

And the surviving fraction ([1]; 5 nM)?
The surviving fraction was 0.64 ± 0.069.

What about the surviving fraction ([1]; 10 nM) of the same test system?
The surviving fraction was 0.612 ± 0.066.

What about the surviving fraction ([1]; 50 nM) of the same test system?
Its surviving fraction is 0.408 ± 0.069.

What about the surviving fraction ([1]; 100 nM) of the same test system?
The surviving fraction was 0.373 ± 0.053.

And the surviving fraction ([1]; 500 nM)?
The surviving fraction was 0.199 ± 0.046.

What about the surviving fraction ([1]; 1000 nM) of the same test system?
Its surviving fraction is 0.115 ± 0.01.

What about the surviving fraction (EVEROLIMUS; 0.5 nM) of the same test system?
Its surviving fraction is 1.1 ± 0.11.

And the surviving fraction (EVEROLIMUS; 1 nM)?
Its surviving fraction is 1.02 ± 0.019.

What about the surviving fraction (EVEROLIMUS; 5 nM) of the same test system?
The surviving fraction was 0.978 ± 0.07.

And the surviving fraction (EVEROLIMUS; 10 nM)?
The surviving fraction was 1.01 ± 0.046.

And the surviving fraction (EVEROLIMUS; 50 nM)?
The surviving fraction was 0.871 ± 0.037.

What about the surviving fraction (EVEROLIMUS; 100 nM) of the same test system?
Its surviving fraction is 0.904 ± 0.11.

And the surviving fraction (EVEROLIMUS; 500 nM)?
The surviving fraction was 0.92 ± 0.046.

What about the surviving fraction (EVEROLIMUS; 1000 nM) of the same test system?
Its surviving fraction is 0.903 ± 0.08.

What does the source list for 22RV1 PROSTATE?
surviving fraction ([1]; 0.5 nM): 0.963 ± 0.14; surviving fraction ([1]; 1 nM): 0.783 ± 0.078; surviving fraction ([1]; 5 nM): 0.334 ± 0.035; surviving fraction ([1]; 10 nM): 0.321 ± 0.051; surviving fraction ([1]; 50 nM): 0.348 ± 0.018; surviving fraction ([1]; 100 nM): 0.313 ± 0.058; surviving fraction ([1]; 500 nM): 0.291 ± 0.058; surviving fraction ([1]; 1000 nM): 0.27 ± 0.025; surviving fraction (EVEROLIMUS; 0.5 nM): 0.788 ± 0.065; surviving fraction (EVEROLIMUS; 1 nM): 0.588 ± 0.14; surviving fraction (EVEROLIMUS; 5 nM): 0.452 ± 0.043; surviving fraction (EVEROLIMUS; 10 nM): 0.375 ± 0.031; surviving fraction (EVEROLIMUS; 50 nM): 0.515 ± 0.24; surviving fraction (EVEROLIMUS; 100 nM): 0.374 ± 0.032; surviving fraction (EVEROLIMUS; 500 nM): 0.365 ± 0.061; surviving fraction (EVEROLIMUS; 1000 nM): 0.375 ± 0.028

What does the source list for JIMT1 BREAST?
surviving fraction ([1]; 0.5 nM): 0.993 ± 0.035; surviving fraction ([1]; 1 nM): 0.985 ± 0.03; surviving fraction ([1]; 5 nM): 0.888 ± 0.029; surviving fraction ([1]; 10 nM): 0.839 ± 0.047; surviving fraction ([1]; 50 nM): 0.559 ± 0.041; surviving fraction ([1]; 100 nM): 0.51 ± 0.041; surviving fraction ([1]; 500 nM): 0.398 ± 0.029; surviving fraction ([1]; 1000 nM): 0.323 ± 0.0049; surviving fraction (EVEROLIMUS; 0.5 nM): 0.752 ± 0.021; surviving fraction (EVEROLIMUS; 1 nM): 0.663 ± 0.014; surviving fraction (EVEROLIMUS; 5 nM): 0.571 ± 0.034; surviving fraction (EVEROLIMUS; 10 nM): 0.561 ± 0.022; surviving fraction (EVEROLIMUS; 50 nM): 0.56 ± 0.034; surviving fraction (EVEROLIMUS; 100 nM): 0.55 ± 0.03; surviving fraction (EVEROLIMUS; 500 nM): 0.5 ± 0.016; surviving fraction (EVEROLIMUS; 1000 nM): 0.494 ± 0.036
